Test: Production of drug-loaded fibers without SRCC by electrospinning
Conditions: PCL in chloroform/acetone
Protocol: The spinning dispersion was prepared by mixing the solid carriers into a 15%, w/w solution of PCL, that was dissolved in a mix of chloroform/acetone, (40/60,w/w). The polymer solution was prepared separately. Therefore, the polymer was added slowly to avoid formation of clumps and subsequently stirred for at least 24 h at room temperature.
The emitter was an assembly of 4 blunt needles (21G) that were surrounded by nitrogen gas saturated with acetone (Figure 3 b)) to avoid bearding at the tip of the needles due to fast evaporation of solvents from the polymer solution. The lateral movement was adapted to the width of the drum collector (0.3 m) at a speed of approx. 0.1 m/s. Working distance (distance between emitter and collector) was 0.2 m and liquid feed rate was kept at 3ml/h for each needle using a syringe pump. A total of 30 ml was spun. The potential was adjusted to approx. -20kV ± 2kV in order to maintain a stable spray. The dimensions of the collector (rotating drum) were 0.3 m in width and a diameter of 0.1 m. The drum was rotated at 500 rpm. The drum was covered with aluminum and finally coated with magnesium-stearate to avoid the product from adhering/sticking to the aluminum foil. The process was constantly supervised. Needles were cleaned and the electric potential was adjusted when necessary to maintain a stable spinning process.

- solubility in the spinning solution: too low
SMILES: Nc1nc2c(ncn2COCCO)c(=O)[nH]1 [Acyclovir]
